From PubChem BioAssay (NCI)
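Growth conditions: 96-well plates. Treatment: test compound, 48 hours, 5 concentrations. Analysis: linear interpolation between bracketing concentrations; unreached endpoints set to highest concentration. TGI denotes the concentration required for complete inhibition of growth.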

Columns and labels:
Experiment in all cases: DTP human tumour cell line panel, 48 h
[1] = tested on: 786-0 renal
[2] = tested on: A498 renal
[3] = tested on: A549 NSCLC
[4] = tested on: ACHN renal
[5] = tested on: BT-549 breast
[6] = tested on: CAKI-1 renal
[7] = tested on: CCRF-CEM leukemia
[8] = tested on: COLO 205 colon
[9] = tested on: DU-145 prostate
[10] = tested on: EKVX NSCLC
[11] = tested on: HCC-2998 colon
[12] = tested on: HCT-116 colon
[13] = tested on: HCT-15 colon
[14] = tested on: HL-60(TB) leukemia
[15] = tested on: HOP-62 NSCLC
[16] = tested on: HOP-92 NSCLC
[17] = tested on: HS 578T breast
[18] = tested on: HT29 colon
[19] = tested on: K-562 leukemia
[20] = tested on: KM12 colon
[21] = tested on: LOX IMVI melanoma
[22] = tested on: M14 melanoma
[23] = tested on: MALME-3M melanoma
[24] = tested on: MCF7 breast
[25] = tested on: MDA-MB-231 breast
[26] = tested on: MDA-MB-435
[27] = tested on: MDA-N
[28] = tested on: MOLT-4 leukemia
[29] = tested on: NCI-H226 lung
[30] = tested on: NCI-H23 lung
[31] = tested on: NCI-H460 lung
[32] = tested on: NCI-H522 lung
[33] = tested on: NCI/ADR-RES ovarian
[34] = tested on: OVCAR-3 ovarian
[35] = tested on: OVCAR-4 ovarian
[36] = tested on: OVCAR-5 ovarian
[37] = tested on: OVCAR-8 ovarian
[38] = tested on: RPMI-8226 leukemia
[39] = tested on: RXF 393 renal
[40] = tested on: SF-268 CNS
[41] = tested on: SF-295 CNS
[42] = tested on: SF-539 CNS
[43] = tested on: SK-MEL-2 melanoma
[44] = tested on: SK-MEL-28 melanoma
[45] = tested on: SK-MEL-5 melanoma
[46] = tested on: SK-OV-3 ovarian
[47] = tested on: SN12C renal
[48] = tested on: SNB-19 CNS
[49] = tested on: SR leukemia
[50] = tested on: SW-620 colon
[51] = tested on: T-47D breast
[52] = tested on: TK-10 renal
[53] = tested on: U251 CNS
[54] = tested on: UACC-257 melanoma
[55] = tested on: UACC-62 melanoma
[56] = tested on: UO-31 renal
[57] = tested on: IGROV1 ovarian
[58] = tested on: PC-3 prostate
[59] = tested on: SNB-75 CNS

NS(=O)(=O)c1nnc(NC(=O)Nc2ccc(Cl)c(Cl)c2)s1
TGI [1]: 67.5 µM
TGI [2]: 43.9 µM
TGI [3]: > 100 µM
TGI [4]: > 100 µM
TGI [5]: 52.2 µM
TGI [6]: 78.8 µM
TGI [7]: 37.3 µM
TGI [8]: 28.2 µM
TGI [9]: > 100 µM
TGI [10]: 94.6 µM
TGI [11]: 34.8 µM
TGI [12]: 42.4 µM
TGI [13]: 50.7 µM
TGI [14]: > 100 µM
TGI [15]: 39.7 µM
TGI [16]: 42.3 µM
TGI [17]: 75.9 µM
TGI [18]: 37.9 µM
TGI [19]: > 100 µM
TGI [20]: 92 µM
TGI [21]: 36.4 µM
TGI [22]: 32.3 µM
TGI [23]: 39.9 µM
TGI [24]: 88.3 µM
TGI [25]: 67.1 µM
TGI [26]: 50 µM
TGI [27]: 44.8 µM
TGI [28]: 84.2 µM
TGI [29]: 65.8 µM
TGI [30]: 39.4 µM
TGI [31]: 55.3 µM
TGI [32]: 30.1 µM
TGI [33]: 55.7 µM
TGI [34]: > 100 µM
TGI [35]: > 100 µM
TGI [36]: 75 µM
TGI [37]: 49.9 µM
TGI [38]: 51.5 µM
TGI [39]: 35.3 µM
TGI [40]: 67.5 µM
TGI [41]: > 100 µM
TGI [42]: 34.1 µM
TGI [43]: 74.2 µM
TGI [44]: 39.3 µM
TGI [45]: 30.8 µM
TGI [46]: 63.4 µM
TGI [47]: 39.7 µM
TGI [48]: 55.8 µM
TGI [49]: 60.6 µM
TGI [50]: > 100 µM
TGI [51]: 55.3 µM
TGI [52]: 43.9 µM
TGI [53]: > 100 µM
TGI [54]: 42 µM
TGI [55]: 31.2 µM
TGI [56]: 85.3 µM

COC(=O)C1CC(C=[N+](C)C)=C(SC)N1C(=O)OCc1ccccc1 (centres undefined)
TGI [1]: > 100 µM
TGI [2]: > 100 µM
TGI [3]: > 100 µM
TGI [4]: > 100 µM
TGI [5]: > 100 µM
TGI [6]: > 100 µM
TGI [8]: > 100 µM
TGI [9]: > 100 µM
TGI [10]: > 100 µM
TGI [11]: > 100 µM
TGI [12]: > 100 µM
TGI [13]: > 100 µM
TGI [15]: > 100 µM
TGI [16]: > 100 µM
TGI [17]: > 100 µM
TGI [18]: > 100 µM
TGI [57]: > 100 µM
TGI [19]: > 100 µM
TGI [20]: > 100 µM
TGI [22]: > 100 µM
TGI [23]: > 100 µM
TGI [24]: > 100 µM
TGI [25]: > 100 µM
TGI [26]: > 100 µM
TGI [27]: > 100 µM
TGI [28]: > 100 µM
TGI [30]: > 100 µM
TGI [31]: > 100 µM
TGI [32]: > 100 µM
TGI [33]: > 100 µM
TGI [34]: > 100 µM
TGI [35]: > 100 µM
TGI [36]: > 100 µM
TGI [37]: > 100 µM
TGI [58]: > 100 µM
TGI [38]: > 100 µM
TGI [39]: > 100 µM
TGI [40]: > 100 µM
TGI [41]: > 100 µM
TGI [43]: > 100 µM
TGI [44]: > 100 µM
TGI [45]: > 100 µM
TGI [46]: > 100 µM
TGI [48]: > 100 µM
TGI [59]: > 100 µM
TGI [49]: > 100 µM
TGI [50]: > 100 µM
TGI [51]: > 100 µM
TGI [52]: > 100 µM
TGI [53]: > 100 µM
TGI [54]: > 100 µM
TGI [55]: > 100 µM
TGI [56]: > 100 µM
